Experiments:
[1] = system: HIV mutant strain 1 (E138K/G140S/Q148H/N155H); experiment: Test Example 2: resistance evaluation test (HeLa-CD4 reporter), mutant strain 1; type: cell-based; details: FC=EC50 of mutant strain/EC50 of wild strain; HeLa-CD4 cells
Method: (§1) A serial dilution series of test samples in 96-well microplates was prepared (50 […]).
(§2) 2.5×10^4/mL of HeLa-CD4 cell suspension was dispensed into each of the microplates containing test sample, in the amount of 100 μL/well, and HIV virus liquid (wild strain and mutant strain) was then dispensed in an amount of 50 μL/well. Mixing was performed using a plate mixer and culturing was performed for three days in a CO2 incubator. After removing the cultured supernatant of each well by suction, 100 μL of the cell solution buffer in the reporter measurement kit was dispensed thereto, and freezing was conducted in a refrigerator (−80° C.). The plates frozen in the refrigerator were defrosted at room temperature, then mixed using a plate mixer and centrifuged for 5 min at 1,200 rpm. The supernatant of each well was divided to 96-well microplates (BLACK) in the amount of 20 μL in each case. The chemiluminescence reagent in the reporter assay kit was dispensed in the amount of 100 μL in each case, and, after reacting for about 1 h at room temperature, the amount of luminescence was measured using a MicroBeta TRILUX.
(§3) The degree of resistance (fold change (FC)) of each mutant strain was also calculated using the following formula. FC=EC50 of mutant strain/EC50 of wild strain (Results)
(§4) The results of the example compounds relating to formula (I) of (A) are shown below. The […] in respect of mutant strain 1 (E138K/G140S/Q148H/N155H) and the FC in respect of mutant strain 2 (E92Q/E138T/G140S/Q148H) are shown in the Table.

[2] = system: HIV mutant strain 2 (E92Q/E138T/G140S/Q148H); experiment: Test Example 2: resistance evaluation test (HeLa-CD4 reporter), mutant strain 2; type: cell-based; details: FC=EC50 of mutant strain/EC50 of wild strain; HeLa-CD4 cells
Method: as §1, §2, §3, §4

[3] = Test Example 8: metabolic stability test; type: in vitro ADME, human
Method: The extent of metabolization of the compound according to the present invention in the liver was evaluated by reacting commercially available pooled human liver microsomes with the compound according to the present invention for a fixed time and calculating the remaining percentage by comparing the reaction sample with an unreacted sample.
The reaction (oxidative reaction) was conducted for 0 min or 30 min at 37° C. in the presence of 1 mmol/L of NADPH, in a 0.2 mL buffer solution containing 0.5 mg of human liver microsome protein/mL (50 mmol/L Tris-HCl pH 7.4, 150 mmol/L potassium chloride, 10 mmol/L magnesium chloride). After the reaction, 50 μL of reaction liquid were added to 100 μL of methanol/acetonitrile=1/1 (v/v) solution, mixed, and centrifuged for 15 minutes at 3000 rpm. The compound according to the present invention in the centrifuged supernatant was quantified using LC/MS/MS or solid phase extraction (SPE)/MS; the residual amount of the compound according to the present invention after the reaction was calculated, taking the amount of the compound at the 0 min reaction point as 100%.

[4] = pooled human liver microsomes, 30 min at 37° C., NADPH, compound concentration 0.5 μmol/L

Structure (SMILES)	FC in respect of mutant strain 1 (E138K/G140S/Q148H/N155H) [1]	FC in respect of mutant strain 2 (E92Q/E138T/G140S/Q148H) [2]	Remaining percentage [3, 4]	Remaining percentage ([3]; human, microsomes, 0.5 h, 0.5 μmol/L, pH 7.4)
CCN1C(=O)c2c(O)c(=O)c(C(=O)NCc3c(F)cc(F)cc3F)cn2N2CCCC[C@@H]12 [Compound I-016]	13	10	88%	
CCN1C(=O)c2c(O)c(=O)c(C(=O)NCc3ccc(F)cc3F)cn2N2CCCC[C@@]12C [Compound I-024]	24	16	92.5%	
CC(C)N1C(=O)c2c(O)c(=O)c(C(=O)NCc3c(F)cc(F)cc3F)cn2N2C[C@@H]3CC[C@@H](O3)[C@@H]12 [II-002]	3.1	7.4	80.2%	
COC[C@@H]1CC[C@H]2N(C(C)C)C(=O)c3c(O)c(=O)c(C(=O)NCc4ccccc4F)cn3N12 [II-005]	4.6	7.7	80.8%	
CC(C)N1C(=O)c2c(O)c(=O)c(C(=O)NCc3ccccc3F)cn2N2C[C@@H]3CC[C@@H](O3)[C@@H]12 [II-009]	5.6	6.4	87%	
CCN1C(=O)c2c(O)c(=O)c(C(=O)NCc3ccc(F)cc3F)cn2N2C[C@@H]3CCC[C@@H](C3)[C@@H]12 [II-013]	6.1	8.7	77.6%	
CCN1C(=O)c2c(O)c(=O)c(C(=O)NCc3c(F)cc(F)cc3F)cn2N2C[C@@H]3CC[C@@H](C3)[C@@H]12 [II-014]	5.7	7.3	74.3%	
CC(C)N1C(=O)c2c(O)c(=O)c(C(=O)NCc3ccc(F)cc3F)cn2N2C[C@@H]3CC[C@@H](O3)[C@@H]12 [II-016]	6.6	9	89.1%	
C[C@H]1CC[C@H]2N(C)C(=O)c3c(O)c(=O)c(C(=O)NCc4cccc(Cl)c4F)cn3N2C1 [II-019]	7.3	7	84.1%	
CC(C)N1C(=O)c2c(O)c(=O)c(C(=O)NCc3ccc(F)cc3F)cn2N2CCOC[C@@H]12 [II-021]	8.1	14	87.5%	
CN1C(=O)c2c(O)c(=O)c(C(=O)NCc3cccc(Cl)c3F)cn2N2C[C@@H]3CC[C@@H](C3)[C@@H]12 [II-023]	9.9	15	74.2%	
CCN1C(=O)c2c(O)c(=O)c(C(=O)NCc3ccc(F)cc3F)cn2N2[C@H]3COC[C@H]3C[C@@H]12 [II-038]	78	110		77.2%
CCN1C(=O)c2c(O)c(=O)c(C(=O)NCc3ccc(F)cc3F)cn2N2C[C@H](COC)C[C@@H]12 [II-039]	48	62	84.3%	
CCN1C(=O)c2c(O)c(=O)c(C(=O)NCc3c(F)cc(F)cc3F)cn2N2C[C@@H]3CC[C@@H](O3)[C@@H]12 [II-041]	17	28	88.4%	
CCN1C(=O)c2c(O)c(=O)c(C(=O)NCc3c(F)cc(F)cc3F)cn2N2C[C@@H](C)C[C@@H]12 [II-043]	18	17	83.2%	
CCN1C(=O)c2c(O)c(=O)c(C(=O)NCc3ccc(F)cc3F)cn2N2C[C@@H](COC)C[C@@H]12 [II-056]	15	28	94.3%	

From patent publication US12564595B2, “Prophylactic and therapeutic pharmaceutical agent for HIV infectious diseases characterized by comprising combination of integrase inhibitor and anti-HIV agent” (Shionogi & Co., Ltd., priority 2019, dated 2026)
